In ChEMBL document CHEMBL5352429, “Designed symmetrical β-hairpin peptides for treating multidrug-resistant salmonella typhimurium infections” (Eur J Med Chem, 2022):
In brackets after ≈: the same amount, converted by molar mass. Activity calls are given as the source filed them. No cut-off for these calls is given here. Peptide text beside a SMILES is read from it.

Key:
Salmonella typhimurium [1] = assay: Antibacterial activity against Salmonella typhimurium DT104 ATCC 700408 incubated overnight by standard microtiter dilution method; assay type: functional, Salmonella enterica subsp. enterica serovar Typhimurium; settings: Salmonella enterica
Salmonella typhimurium [2] = assay: Antibacterial activity against Salmonella typhimurium DT104 assessed as reduction in IL-4 mRNA level in ileum at 20 mg/kg, ip administered for 3 days and measured on day 7 by RT-PCR analysis; assay type: functional, organism-based; settings: Salmonella enterica subsp. enterica serovar Typhimurium, time 7.0 day
[3] = Antibacterial activity against Salmonella paratyphi C CICC 21512 incubated overnight by standard microtiter dilution method; assay type: functional, Salmonella enterica subsp. enterica serovar Paratyphi C; settings: Salmonella enterica
RAW264.7 = assay: Inhibition of LPS-stimulated IL-1beta production in mouse RAW264.7 cells at 1 to 128 ug/ml incubated for 24 hrs by ELISA analysis; assay type: functional, cell-based; settings: dose 1-128 µg/ml
Staphylococcus aureus = assay: Antibacterial activity against Staphylococcus aureus ATCC 29213 incubated overnight by standard microtiter dilution method; assay type: functional
[4] = Antibacterial activity against Salmonella enterica subsp. enterica serovar Choleraesuis CICC 21493 incubated overnight by standard microtiter dilution method; assay type: functional

In the case of `C[C@@H](O)[C@H](NC(=O)[C@H](CS)NC(=O)[C@H](CCCCN)NC(=O)[C@H](Cc1c[nH]c2ccccc12)NC(=O)[C@H](CCCCN)NC(=O)[C@@H](N)Cc1c[nH]c2ccccc12)C(=O)N[C@@H](CCCCN)C(=O)N[C@@H](CO)C(=O)NCC(=O)N[C@@H](CS)C(=O)N[C@@H](CCCCN)C(=O)N[C@@H](Cc1c[nH]c2ccccc12)C(=O)N[C@@H](CCCCN)C(=O)N[C@@H](Cc1c[nH]c2ccccc12)C(N)=O` (H-WKWKCTKSGCKWKW-NH2), the MIC (Salmonella typhimurium [1]) is reported as 4 µg/mL (≈ 2.16 µM), the Activity (Salmonella typhimurium [2]) is reported as “Active” and the MIC [3] is reported as 4 µg/mL (≈ 2.16 µM). The inhibition (RAW264.7) was “Active”, the MIC (Staphylococcus aureus) was 4 µg/mL (≈ 2.16 µM) and the MIC [4] was 8 µg/mL (≈ 4.31 µM).
